This is an account of results in ChEMBL document CHEMBL3352022, “Preparation and biological evaluation of 1'-cyano-2'-C-methyl pyrimidine nucleosides as HCV NS5B polymerase inhibitors” (Bioorg Med Chem Lett, 2014).

pEC50, pIC50: −log10 of the molar value.

In experiment [1] the test system is Hepatitis C virus. The experiment can be described thus: Antiviral activity against HCV1a assessed as inhibition of viral replication by cell based 384 well format assay. The format is functional, Hepacivirus hominis. As to conditions: subtype 1a.
Experiment [2] in a line: Inhibition of HCV1b NS5B polymerase. On the set-up: species or system Hepatitis C virus subtype 1b.
Experiment [3] relates to Hepatitis C virus. The experiment in a line: Antiviral activity against HCV1b assessed as inhibition of viral replication by cell based 384 well format assay. Format: functional, Hepacivirus hominis. Conditions: genotype 1b.
The test system of experiment [4] is Hepatitis C virus. The experiment in a line: Antiviral activity against HCV1b in Rluc cells assessed as TP level per million cells after 24 hrs by liquid chromatography. Format: functional, Hepacivirus hominis, genotype 1b.

Broadly, the pEC50 is the EC50 on a negative log10 scale, so that one unit is a factor of ten. A word on the pIC50: it is the negative decadic logarithm of the IC50, by convention in mol/L. In the case of `C[C@@]1(O)[C@H](O)[C@@H](CO)O[C@H]1n1ccc(N)nc1=O`, the pEC50 in the experiment on Hepatitis C virus [1] was 5.60; in the experiment on Hepatitis C virus [3], 5.55. In experiment [2], this molecule gave a pIC50 of 5.78.
Consider `C[C@@]1(O)[C@H](O)[C@@H](CO)O[C@@]1(C#N)c1ccc2c(N)ncnn12`, for which the negative-log EC50 (pEC50) with Hepatitis C virus [1] and with Hepatitis C virus [3] was less than 4.05 throughout.
As to `CC(C)OC(=O)[C@H](C)N[P@](=O)(OC[C@H]1O[C@@](C#N)(n2ccc(N)nc2=O)[C@](C)(O)[C@@H]1OC(=O)C(C)C)Oc1ccccc1`, the pEC50 was 6.60 in the experiment on Hepatitis C virus [1] and 6.22 with Hepatitis C virus [3].
Regarding `C[C@@]1(O)[C@H](O)[C@@H](CO)O[C@@]1(C#N)n1ccc(=O)[nH]c1=O`, the negative-log EC50 (pEC50) in the experiment on Hepatitis C virus [1] and in the experiment on Hepatitis C virus [3] was less than 4.05 throughout. This molecule also showed a pIC50 in experiment [2] of 4.57.
With `C[C@@]1(O)[C@H](O)[C@@H](CO)O[C@@]1(C#N)n1ccc(N)nc1=O`, the results for the negative logarithm of the EC50 (pEC50) in the experiment on Hepatitis C virus [1] and in the experiment with Hepatitis C virus [3] were 4.12 and less than 4.05, respectively. In experiment [2], the pIC50 is 4.75.
Take `CC(C)OC(=O)[C@H](C)N[P@+]([O-])(OC[C@H]1O[C@@](C#N)(c2ccc3c(N)ncnn23)[C@](C)(O)[C@@H]1OC(=O)C(C)C)Oc1ccccc1` [GS-6620]: the negative-log EC50 (pEC50) in the experiment on Hepatitis C virus [1] was 7.03; with Hepatitis C virus [3] it was 6.62. In the experiment on Hepatitis C virus [4], the Activity stood at 40 pmol.
